According to patent US20120053318A1, “METHOD OF RADIOLABELING” (CENTRE FOR PROBE DEVELOPMENT AND COMMERCIALIZATION, priority 2010, published 2012):

Tests used:
[1] = oils selected based on biocompatibility; cited from earlier work
[2] = target: urokinase plasminogen activator receptor (uPAR) (Homo sapiens, UniProt Q03405); assay: binding affinity of Re complexes of the peptides for uPAR; details: isostructural to the Tc analogues
Sequence of urokinase plasminogen activator receptor (uPAR) (Q03405 23-305): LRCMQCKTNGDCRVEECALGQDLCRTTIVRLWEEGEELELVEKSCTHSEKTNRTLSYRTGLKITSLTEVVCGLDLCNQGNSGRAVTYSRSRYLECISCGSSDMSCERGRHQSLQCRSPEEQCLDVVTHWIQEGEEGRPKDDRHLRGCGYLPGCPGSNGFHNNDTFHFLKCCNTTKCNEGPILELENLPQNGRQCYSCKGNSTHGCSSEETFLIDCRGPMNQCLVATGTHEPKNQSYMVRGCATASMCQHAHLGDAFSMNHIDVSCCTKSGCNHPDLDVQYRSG

Q: Which LD50 [1] does the source give for `CC(C)CC(C)(C)C` [isooctane] here?
A: greater than 2000 mg/kg

Q: For D-Cha-F-s-r-Y-L-W-S-SAACII [L2], which Ki [2] is on record?
A: 0.39 ± 0.1 nM

Q: For SAACII-S-G-S-G-D-Cha-F-s-r-Y-L-W-S [L1], which Ki [2] is on record?
A: 1.37 ± 0.83 nM
